# According to patent publication US12583872B2, “Photosensitizer compounds, methods of manufacture and application to plants” (NUTRIEN AG SOLUTIONS (CANADA) INC., priority 2019, dated 2026):
# What was measured:
# [1] = test system: dollar spot fungus (Sclerotinia homoeocarpa); experiment: Dollar spot fungus agar plate assay (amended PDA, radial growth); format: cell-based; conditions: for inhibition at 10 µM: Clarireedia homoeocarpa
# Description: Control of dollar spot fungus (Sclerotinia homoeocarpa) with Ce6-mix-DMAE^15,17 amide and Ce6Na3 (comparative) was assessed. Treatments were amended into Potato Dextrose Agar (PDA) at desired concentrations. Then, a 5 mm diameter plug of a Sclerotinia homoeocarpa isolate (3 isolates total tested) was inoculated into the center of the amended Petri-dish and incubated at 21° C. in the dark for 24 h. After 24 h, one set of Petri-dishes (in triplicate) was left in the dark (no light) and one set was placed under illumination (light) for the remainder of the experiment (all at 21° C.). Radial growth of the fungus was monitored daily until the growth of S. homoeocarpa on non-amended PDA reached the edge of the Petri-dish. Illumination was provided by fluorescent lights emitting about 180 μmol/m^2/s photosynthetically active radiation (PAR).
# Agar protocol: control of dollar spot fungus (Sclerotinia homoeocarpa) with modified Ce6 was assessed. Treatments were amended into Potato Dextrose Agar (PDA) at desired concentrations. Then, a 5 mm diameter plug of a Sclerotinia homoeocarpa isolate (3 isolates total tested) was inoculated into the center of the amended Petri-dish and incubated at 21° C. in the dark for 24 hours. After 24 hours, one set of Petri-dishes (in triplicate) was left in the dark and one set was placed under illumination for the remainder of the experiment (all at 21° C.). Radial growth of the fungus was monitored daily until the growth of S. homoeocarpa on non-amended PDA reaches the edge of the Petri-dish. Illumination was provided by fluorescent lights emitting about 180 μmol/m2/s photosynthetically active radiation (PAR).
# [2] = test system: Colletotrichum orbiculare ATC20767 (Cgm); experiment: Control of fungal pathogen Cgm on Nicotiana benthamiana; format: in vivo; conditions: 0.05% + Surfactants (0.5% propylene glycol + 0.1% Pluronics F-127) (Table 14); host Nicotiana benthamiana
# Description: Control of the fungal plant pathogen Colletotrichum orbiculare ATC20767 (Cgm) on the host plant Nicotiana benthamiana following treatment with modified Chlorin e6 compounds was assessed. Treatments were applied to N. benthamiana plants approximately 2 h prior to inoculation with a spore suspension of Cgm. Plants were then exposed to light for a 24-hour period followed by dark incubation until disease symptoms were evident on the water treated control plants. Once disease symptoms were evident, lesions were counted and leaf area measured in order to determine the number of lesions/cm^2 leaf area. Four replicate plants were used per treatment and plants were randomized under the light source. Illumination was provided by LED lights emitting about 180 μmol/m^2/s photosynthetically active radiation (PAR).
# [3] = test system: Pseudomonas syringae pv tabacci; experiment: Control of bacterial pathogen Pst on Arabidopsis thaliana; format: in vivo; conditions: 0.05% + surfactants (0.5% propylene glycol + 0.1% Pluronics F-127); host Arabidopsis thaliana; yellow leaves/plant
# Description: Arabidopsis thaliana plants were grown under 12 hours:12 hours, light:dark photoperiod, under LED lights (PAR 24 μmol m^−2 s^−1), at a temperature of 25° C.±3° C. and 65% relative humidity. After 3 weeks, plants were sprayed with formulations (50% dilution in water), allowed to dry for 2 h, after which Pseudomonas syringae pv tabacci (at OD0.08 diluted in 10 mM MgCl2) was sprayed. Plants were kept under plastic domes until symptoms develop. Disease severity was rated by counting the number of yellow leaves/plant. Data are average of 3 replicas.
# [4] = test system: Pseudomonas syringae pv. tabaci; experiment: Relative inactivation of Pseudomonas syringae pv. tabaci in PBS (CFU count); format: cell-based; conditions: for Relative Inactivation (log[CFUcontrol mL^−1] − log[CFUtreatment mL^−1]): concentration not given; for Killing of bacteria: light treatment
# Description: Experiments were conducted to evaluate control of the gram-negative bacterial plant pathogen Pseudomonas syringae pv. tabaci with modified Ce6. Treatments were prepared in Phosphate Buffered Saline (PBS) in 96 well plates at desired concentrations. A bacterial suspension was inoculated into the PBS and incubated at 28° C. in the dark for 30 min. After 30 min, the 96 well plate was placed under illumination for 1 hour (at 21° C.). A separate plate prepared at the same time was kept in the dark without illumination and served as dark control. Following illumination, bacterial suspensions were serially diluted and 10 μL of each dilution was spread uniformly on Tryptic Soy Agar (TSA) plates and placed in the dark in an incubator at 28° C. for 48 hours. After 48 hours, bacterial colonies were counted and results were log transformed (log colony forming units (CFU)/mL). The relative inactivation was determined by taking the difference between log CFU (PBS control) and log CFU (treatments). Sample Illumination was provided by LED lights (Heliospectra RX30) emitting about 1000 μmol/m^2/s photosynthetically active radiation (PAR). The modified Ce6 that were evaluated are the Ce6-mix-DMAE^15,17 amide, Ce6-bis-DMAE^15,17 amide and Ce6-mono-DMAE^15 amide.
# [5] = test system: dollar spot fungus (Sclerotinia homoeocarpa); experiment: Dollar spot fungus broth protocol (PBS treatment, then radial growth on PDA); format: cell-based; conditions: Broth data; for inhibition at 100 µM: Clarireedia homoeocarpa
# Description: Broth protocol: control of dollar spot fungus (Sclerotinia homoeocarpa) with modified chlorins was assessed. Treatments were prepared in Phosphate Buffered Saline (PBS) in 24 well plates (in duplicates for light vs. dark incubation) at desired concentrations. Then, a 5 mm diameter plug of a Sclerotinia homoeocarpa isolate (3 isolates total tested) was inoculated into the PBS and incubated at 21° C. in the dark for 2 hours. After 2 hours, one of the 24 well plates (with isolates in triplicate) was left in the dark and one 24 well plate was placed under illumination for 1 hour (all at 21° C.). Following illumination, fungal plugs were removed from PBS, blotted dry on sterile filter paper and transferred to non-amended Potato Dextrose Agar (PDA). Radial growth of the fungus was monitored daily until the growth of S. homoeocarpa reached the edge of the Petri-dish. Illumination was provided by LED lights emitting about 1000 μmol/m2/s photosynthetically active radiation (PAR).
# [6] = test system: Kentucky bluegrass (Poa pratensis); experiment: Kentucky bluegrass tolerance to salt stress (turf quality); format: in vivo; conditions: 0.1%; 170 mM NaCl, 2 salt applications; scale 1-9 (1=dead, 9=healthy)
# Description: Kentucky bluegrass (Poa pratensis) was grown under greenhouse conditions for ˜3 weeks. After 3 weeks, plants were sprayed with formulations and allowed to sit for 24 hours, after which the pots were placed in a 170 mM NaCl solution until the soil was saturated. The salt application was repeated again 7 days later for a total of 2 salt applications. Salinity stress was evaluated based on a turf quality scale of 1-9; where 1=dead, brown turf; 6=minimally acceptable turf quality (based on standards for golf courses or sports fields); and 9=dense, dark green turf (healthy). Data are average of 5 replicates.
# [7] = Agar data, 10 uM, Dark (Table 5)
# [8] = Agar data, 10 uM, Light (Table 5)
# [9] = Light: 1 hour about 1000 μmol/m^2/s PAR after 30 min dark incubation, where no CFU were left, treatment set to 1 CFU/mL
structure (smiles),measurement,setting,value
C=Cc1c(C)c2cc3nc(c(CC(=O)NCCNCCCC)c4[nH]c(cc5nc(cc1[nH]2)C(C)=C5CC)c(C)c4C(=O)O)[C@@H](CCC(=O)O)[C@@H]3C [Ce6-mono-BAE^15 amide],inhibition at 10 µM,[1]; [7],49%
same,inhibition at 10 µM,[1]; [8],99%
C=Cc1c(C)c2cc3nc(c(CC(=O)NCCN(C)C)c4[nH]c(cc5nc(cc1[nH]2)C(C)=C5CC)c(C)c4C(=O)O)[C@@H](CCC(=O)O)[C@@H]3C [Ce6-mono-DMAE^15 amide],"Disease inhibition, %",[2],94%
same,"Disease inhibition, %",[3],56%
same,Relative Inactivation (log[CFUcontrol mL^−1] − log[CFUtreatment mL^−1]),[4]; Dark control plate,0.21 ± 0.33
same,Relative Inactivation (log[CFUcontrol mL^−1] − log[CFUtreatment mL^−1]),[4]; [9],7.98 ± 0.65
same,Killing of bacteria,[4],killed all bacteria
"C=Cc1c(C)c2cc3nc(c(CC(=O)NCCN(C)C)c4[nH]c(cc5nc(cc1[nH]2)C(C)=C5CC)c(C)c4C(=O)O)[C@@H](CCC(=O)NCCN(C)C)[C@@H]3C [Ce6-bis-DMAE^15,17 amide]",Relative Inactivation (log[CFUcontrol mL^−1] − log[CFUtreatment mL^−1]),[4]; Dark control plate,1.13 ± 0.42
same,Relative Inactivation (log[CFUcontrol mL^−1] − log[CFUtreatment mL^−1]),[4]; [9],7.98 ± 0.65
same,Killing of bacteria,[4],killed all bacteria
C=Cc1c(C)c2cc3nc(c(CC(=O)NCCOP(=O)(O)O)c4[nH]c(cc5nc(cc1[nH]2)C(C)=C5CC)c(C)c4C(=O)O)[C@@H](CCC(=O)O)[C@@H]3C [Ce6-mono-EP OA^15],inhibition at 100 µM,"[5]; 100 uM, Dark",-5%
same,inhibition at 100 µM,"[5]; 100 uM, Light",71%
C=Cc1c(C)c2cc3nc(c(CC(=O)[O-])c4[nH]c(cc5nc(cc1[nH]2)C(C)=C5CC)c(C)c4C(=O)[O-])[C@@H](CCC(=O)[O-])[C@@H]3C.[Na+].[Na+].[Na+] [Ce6Na3],Inhibition,[1]; [7],26%
same,Inhibition,[1]; [8],74%
same,Inhibition,"[1]; Light, 5 μM, agar plate",39%
same,Inhibition,"[1]; Light, 10 μM, agar plate",74%
same,Inhibition,"[1]; Light, 31 μM, agar plate",99%
same,Inhibition,"[1]; No Light, 5 μM, agar plate",13%
same,Inhibition,"[1]; No Light, 10 μM, agar plate",26%
same,Inhibition,"[1]; No Light, 31 μM, agar plate",44%
same,Relative Inactivation (log[CFUcontrol mL^−1] − log[CFUtreatment mL^−1]),[4]; Dark control plate,−0.03 ± 0.13
same,Relative Inactivation (log[CFUcontrol mL^−1] − log[CFUtreatment mL^−1]),[4]; [9],0.39 ± 0.29
same,Turf Quality,[6],6
same,Inhibition,"[5]; 10 uM, Dark",−4%
same,Inhibition,"[5]; 10 uM, Light",53%
same,Inhibition,"[5]; 100 uM, Dark",16%
same,Inhibition,"[5]; 100 uM, Light",66%
